Test system: HIV
Assay: Testing virostatic activity of adefovir diphosphate 8 in TZM-bl cell culture infected with HIV
Type: cell-based, Human immunodeficiency virus
Text: The subject of testing was the compound of structure formula 8 (adefovir diphosphate) which is a known (Mulato & Cherrington, 1997) active metabolite—the reverse transcriptase inhibitor—in inhibiting the replication of viral DNA of HIV. In determining activity of […], compound 7 (tenofovir), which is a clinically approved drug used for the treatment of HIV, was used as a standard. […] Then the solution of the complex was removed and the infected cells were overlaid with medium with serum and incubated at 37° C. Parallel control experiments were performed (without infection; infection without active substance; 10 μmol·l^−1 tenofovir 7 throughout incubation; compound 8 without a carrier).

## Nc1ncnc2c1ncn2CCOCP(=O)(O)OP(=O)(O)OP(=O)(O)O [Compound 8, adefovir diphosphate]
10 μmol·l−1 complex of compound 8 and transporter 6c in buffer A for 10 minutes, three days of incubation, standard 10 μmol·l−1 tenofovir 7 throughout incubation, FIG. 7
  Virostatic activity compared with tenofovir 7 standard: identical with the control experiments where a solution of compound 7 was present in the medium throughout the incubation
Compound 8 applied using the 6c carrier for 10 min vs compound 7 present throughout incubation
  Activity relative to drug 7, concluded from the shorter time of application: more active than the clinically used drug 7

Source: patent US11168153B2, “Cyclodextrin-based transporter of nucleoside triphosphate transporter across the cell membrane, its preparation and use” (USTAV ORGANICKE CHEMIE A BIOCHEMIE AV CR, V.V.I., priority 2016, dated 2021)
